Here are results for 1 compound from US20100021519A1, “Compositions and Methods for Treating or Preventing Diseases of Body Passageways” (priority 2006, published 2010).

Data set [1] is described as follows: Pilot in situ intra-tracheal infusion of THX-polymer formulation in rats immediately after termination. The format is in vivo, rat. Particulars: for THX tissue level, trachea: in situ infusion over 30 mins, 8 mg/kg, 200 μl, tissue harvested after 2 hours. The protocol:
A pilot study of in situ intra-tracheal infusion was performed to estimate tracheal and lung tissue levels after in situ intra-tracheal infusion of THX-polymer formulation.
Method: Two rats (immediately after termination) were intra-tracheally infused over 30 mins with a THX-polymer formulation. The dose was 8 mg/kg and volume was 200 μl. After infusion these were wrapped for 2 hours in a warm heating pad. Tracheo-bronchial and lung tissue were harvested after wiping the lumen area of the tracheo-bronchial lumen with a tissue and spatula (to take off any adsorbed drug) at the end of 2 hours. Samples were frozen at −80 C until processed and analyzed by LC-MS. Sample extraction was conducted at AraVasc Inc. The processed samples were analyzed at Alta Analytical laboratories by LC-MS.

The test system of another data set is liver and lung cancer. Particulars: preliminary reports, cited from earlier work.
For data set [2] the following is noted: for THX level, plasma / THX tissue level, lung: rat; for THX level, plasma: intratracheal 3 × 4 mg/kg; for THX tissue level, lung: intratracheal THX-polymer formulation 3 × 4 mg/kg, LC-MS.
Method: A screening formulation of thalidomide (THX) and polymer was used for the studies and the rat was chosen a preclinical model.
A pilot pharmacokinetic (PK) study was performed to estimate tracheo-bronchial and lung tissue levels after intra-tracheal application of THX-polymer formulation.
Method: A 10 mg/ml THX-polymer formulation was delivered (to anesthetized rats) at a dose of 4 mg/Kg at a volume of 100 μl dosed 3 times in 4 rats at 30 min intervals. The animals were anesthetized while dosing. […] Blood, tracheo-bronchial and lung tissue was sampled at 20 and 40 min past the third dose. Samples were frozen until processed for LC-MS analysis. […] Only the plasma and lung tissue were analyzed by LC-MS.
Method: A preliminary screening LCMS method was developed for quantitating THX in tissues and plasma. […] The equipment used was a SCIEX PE 3000.
Tissue and Plasma Extraction: The tissue was ground (glass-glass homogenizer) and extracted with 70:30 0.1% formic acid in acetonitrile and 0.1% formic acid in water at a 1:3 ratio of tissue to solvent. Plasma is extracted with the same solvent as the tissue at a 1:2 ratio of plasma to solvent. The supernatant extract was subject to LCMS analysis.
The mark [3] stands for this setting: clinical trials in liver and lung cancer.
Where [4] appears, read: rats, intra-tracheal THX-polymer formulation, 12 mg/kg dose (100 μl dosed 3 times).

Like-named read-outs stand apart in the source and are kept apart here.

For the compound `O=C1CCC(N2C(=O)c3ccccc3C2=O)C(=O)N1` (racemic) [THX, 2-(2,6-dioxo-3-piperidinyl)-1H-isoindole-1,3(2H)-dione], the “THX tissue level, trachea” value in data set [1] (Rat 1) came out at 211.21 μg/100 mg; in data set [1] (Rat 2) it was 290.36 μg/100 mg. Moreover, the “THX levels in tracheo-bronchial and lung tissue (in words)” value in data set [1] (rats, in situ intra-tracheal infusion (0.5 hr), 8 mg/kg dose) is on record as “High levels”. Moreover, in the data set with liver and lung cancer (setting [3]), the Disease control rates is reported as 8%-57%. Moreover, the Response rates in the data set on liver and lung cancer (setting [3]) is 4%-10%. Further, the “Toxicity in clinical trials (in words)” value in the data set with liver and lung cancer is given as “associated with systemic toxicities”. Also, the “THX level, plasma” value in data set [2] (100 μl, 20 mins post 3rd dose, unit of the table head) was found to be 0.19 ng/mL; in data set [2] (100 μl, 40 mins post 3rd dose, unit of the table head) it was 0.44 ng/mL; in data set [2] (20 mins post 3rd dose, unit of the text) it was 190 ng/mL; in data set [2] (40 mins post 3rd dose, unit of the text) it was 440 ng/mL. Also, the “THX tissue level, lung” value came out at 21.80 μg/100 mg in data set [2] (100 μl, 20 mins post 3rd dose) and 16.81 μg/100 mg in data set [2] (100 μl, 40 mins post 3rd dose). In addition, the “Distribution/diffusion into the lung tissue and vasculature (in words)” value in data set [2] (rats, intra-tracheal THX-polymer formulation, 12 mg/kg dose) is “good distribution/diffusion into the lung tissue and vasculature”. The “THX levels in lung tissue (in words)” value in data set [2] (setting [4]) is “High levels”. Besides, in data set [2] (setting [4]), the “THX levels in plasma (in words)” value was “low levels”.
